Measurements: ChEMBL document CHEMBL3217482, “Synthesis and biological evaluation of novel 1-aryl, 5-(phenoxy-substituted)aryl-1,4-pentadien-3-one derivatives” (Medchemcomm, 2011)

Assays:
Bcap37 [1] = assay: Antiproliferative against human Bcap37 cells assessed as growth inhibition after 72 hrs by MTT assay; assay type: functional, cell-based; conditions: Bcap37, 72 h
[2] = Antiproliferative against human BGC823 cells assessed as growth inhibition after 72 hrs by MTT assay; assay type: functional, cell-based; conditions: BGC-823, 72 h
PC-3 [3] = assay: Antiproliferative against human PC3 cells assessed as growth inhibition at 1 uM after 72 hrs by MTT assay relative to control; assay type: functional; conditions: PC-3, 72 h, read-out: GI
PC-3 [4] = assay: Antiproliferative against human PC3 cells assessed as growth inhibition at 10 uM after 72 hrs by MTT assay relative to control; assay type: functional; conditions: PC-3, 72 h, read-out: GI
Bcap37 [5] = assay: Antiproliferative against human Bcap37 cells assessed as growth inhibition at 1 uM after 72 hrs by MTT assay relative to control; assay type: functional; conditions: Bcap37, 72 h, read-out: GI
Bcap37 [6] = assay: Antiproliferative against human Bcap37 cells assessed as growth inhibition at 10 uM after 72 hrs by MTT assay relative to control; assay type: functional; conditions: Bcap37, 72 h, read-out: GI
[7] = Antiproliferative against human BGC823 cells assessed as growth inhibition at 1 uM after 72 hrs by MTT assay relative to control; assay type: functional; conditions: BGC-823, 72 h, read-out: GI
[8] = Antiproliferative against human BGC823 cells assessed as growth inhibition at 10 uM after 72 hrs by MTT assay relative to control; assay type: functional; conditions: BGC-823, 72 h, read-out: GI

| SMILES | IC50 (Bcap37 [1]) | IC50 [2] | inhibition of growth at 1 µM (PC-3 [3]) | inhibition of growth at 10 µM (PC-3 [4]) | inhibition of growth at 1 µM (Bcap37 [5]) | inhibition of growth at 10 µM (Bcap37 [6]) | inhibition of growth at 1 µM [7] | inhibition of growth at 10 µM [8] |
| --- | --- | --- | --- | --- | --- | --- | --- | --- |
| COc1cccc2c1C(=O)c1c(O)c3c(c(O)c1C2=O)C[C@@](O)(C(=O)CO)C[C@@H]3O[C@H]1C[C@H](N)[C@H](O)[C@H](C)O1 [DOXORUBICIN] | 2000 nM | 2600 nM | 88.2% | 94.7% | 84.2% | 93.1% | 90.7% | 95.9% |
| CC[C@@]1(O)C(=O)OCc2c1cc1n(c2=O)Cc2cc3cc(O)ccc3nc2-1 [HYDROXYCAMPTOTHECIN] |  |  | 17.1% | 37% | 8.8% | 33.5% | 7.3% | 26.5% |
